Results from the CheMixHub viscosity set.

Test: xn = mol fraction of the nth substance listed

CCCCOCCOCCOCCO + ClC=C(Cl)Cl
298.15 K, 101.33 kPa
Conditions | viscosity [mPa·s]
x1 = 0.008 | 0.55
x1 = 0.0207 | 0.583
x1 = 0.0326 | 0.62
x1 = 0.0484 | 0.671
x1 = 0.0692 | 0.742
x1 = 0.0868 | 0.809
x1 = 0.1122 | 0.913
x1 = 0.1472 | 1.064
x1 = 0.1817 | 1.242
x1 = 0.2132 | 1.421
x1 = 0.2487 | 1.641
x1 = 0.2772 | 1.839
x1 = 0.3104 | 2.088
x1 = 0.3418 | 2.329
x1 = 0.3841 | 2.663
x1 = 0.4202 | 2.968
x1 = 0.4555 | 3.288
x1 = 0.4882 | 3.585
x1 = 0.5244 | 3.929
x1 = 0.5826 | 4.489
x1 = 0.6409 | 5.1
x1 = 0.6866 | 5.591
x1 = 0.7428 | 6.2
x1 = 0.8128 | 6.968
x1 = 0.8883 | 7.84
x1 = 0.9261 | 8.238
x1 = 0.967 | 8.732
x2 = 0.0136 | 8.939

CCCCC(CC)COP(=O)(O)OCC(CC)CCCC (centres undefined) + Clc1ccccc1
viscosity [mPa·s], 101 kPa
Conditions | x1 = 0.0374 | x1 = 0.0804 | x1 = 0.1303 | x1 = 0.1888 | x1 = 0.2587 | x1 = 0.3436 | x1 = 0.4481 | x1 = 0.5826 | x1 = 0.7584
303.15 K | 0.8898 | 1.127 | 1.45 | 1.903 | 2.556 | 3.531 | 5.039 | 7.539 | 11.9
313.15 K | 0.766 | 0.9413 | 1.176 | 1.498 | 1.953 | 2.619 | 3.629 | 5.271 | 8.078
323.15 K | 0.6693 | 0.7965 | 0.9633 | 1.187 | 1.497 | 1.939 | 2.595 | 3.637 | 5.374

CCCC[n+]1cc[nH]c1.O=S(=O)([N-]S(=O)(=O)C(F)(F)F)C(F)(F)F + N
Conditions | viscosity [mPa·s]
313.2 K, 101.33 kPa, x2 = 0.7076 | 9.866

Cc1cccc(O)c1 + Nc1ccccc1
298.15 K, 101 kPa
Conditions | viscosity [mPa·s]
x1 = 0.3 | 6.799
x1 = 0.374 | 8.194
x1 = 0.461 | 9.622
x1 = 0.549 | 11.12
x1 = 0.631 | 12.2
x1 = 0.778 | 12.31

[Br-].[Br-].[Br-].[Sb+3] + Nc1ccccc1
323.15 K, 101 kPa
Conditions | viscosity [mPa·s]
x1 = 0.1 | 6.997
x1 = 0.25 | 182.4
x1 = 0.333 | 2175
x1 = 0.4 | 7012
x1 = 0.45 | 20680
x1 = 0.47 | 23030
x1 = 0.49 | 24420
x1 = 0.5 | 24690
x1 = 0.51 | 20780
x1 = 0.53 | 16040
x1 = 0.55 | 7888
x1 = 0.6 | 3022
x1 = 0.75 | 272.9

N + O
Conditions | viscosity [mPa·s]
293.15 K, 100 kPa, x1 = 0.1035 | 1.166
293.15 K, 101 kPa, x1 = 0.0111 | 1.025
303 K, 100 kPa, x1 = 0.053 | 0.86
303 K, 100 kPa, x1 = 0.105 | 0.92
303 K, 100 kPa, x1 = 0.157 | 0.97
303 K, 100 kPa, x1 = 0.209 | 1
303.15 K, 100 kPa, x1 = 0.05336 | 0.838
303.15 K, 100 kPa, x1 = 0.1035 | 0.994
313 K, 100 kPa, x1 = 0.053 | 0.69
313 K, 100 kPa, x1 = 0.105 | 0.72
313 K, 100 kPa, x1 = 0.157 | 0.75
313 K, 100 kPa, x1 = 0.209 | 0.79
313.15 K, 100 kPa, x1 = 0.05336 | 0.666
313.15 K, 100 kPa, x1 = 0.1035 | 0.833
